In patent US8247211B2, “Glycopeptide antibiotics” (American Cyanamid Company, priority 2001, dated 2012):

Legend:
Experiment in all cases: In vitro antibacterial evaluation: minimum inhibitory concentration (MIC), broth dilution method
Format in all cases: cell-based
[1] = system: Enterococcus sp.
In short: (§1)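 Using Muller-Hinton II […] and an inoculum of 5×10^5 CFU/mL, antibiotic dilutions from 64 down to 0.06 μg/mL were tested following NCCLS M7-A2. The MIC is the lowest concentration inhibiting growth, including in methicillin-, penicillin- or vancomycin-resistant clinical isolates.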

[2] = system: Escherichia coli
In short: as §1

[3] = system: Staphylococcus sp.; settings: 18 hours at 35° C.
In short: as §1

[4] = system: Streptococcus sp.; settings: 18 hours at 35° C.
In short: as §1

[5] = system: Escherichia coli; remark: listed apart in the source
[6] = Enterococcus faecalis (ATCC 29212)
[7] = Enterococcus faecalis (GC 2242), 18 hours at 35° C.
[8] = Enterococcus faecalis (GC 4552), 18 hours at 35° C.
[9] = Enterococcus faecalis (GC 4553)
[10] = Enterococcus faecalis (GC 4554)
[11] = broth dilution, 18 hours at 35° C., strain ATCC 29212
[12] = broth dilution, 18 hours at 35° C., strain GC 2242
[13] = broth dilution, 18 hours at 35° C., strain GC 2243
[14] = broth dilution, 18 hours at 35° C., strain GC 4552
[15] = broth dilution, 18 hours at 35° C., strain GC 4553
[16] = broth dilution, 18 hours at 35° C., strain GC 4554
[17] = broth dilution, 18 hours at 35° C., strain GC 4556
[18] = broth dilution, 18 hours at 35° C., strain GC 4557
[19] = broth dilution, 18 hours at 35° C., strain GC 4558
[20] = Staphylococcus aureus (ATCC 29213)
[21] = Staphylococcus aureus (GC 1131)
[22] = Staphylococcus aureus (GC 4541)
[23] = Staphylococcus aureus (GC 4542)
[24] = Staphylococcus aureus (GC 4544)
[25] = Staphylococcus aureus (GC 4545)
[26] = broth dilution, strain ATCC 29213
[27] = Streptococcus agalactiae (GC 4564)
[28] = Streptococcus pneumoniae (GC 4565)

α-O-[(Benzylamino)carbonyl]-cyclo[glycyl-β-methylphenylalanyl-O-(4-O-hexopyranosylhexopyranosyl)tyrosyl-3-(2-iminoimidazolidin-4-yl)seryl-3-(3-hexopyranosyl-2-iminoimidazolidin-4-yl)serylseryl] [Example 257a]
MIC Enterococcus avium (GC 4558) ([1]; Enterococcus avium (GC 4558)): >0.5 µg/mL | MIC Enterococcus faecalis (ATCC 29212) [1, 6]: >0.5 µg/mL | MIC Enterococcus faecalis (GC 2242) [1, 7]: >0.5 µg/mL | MIC Enterococcus faecalis (GC 2691) ([1]; Enterococcus faecalis (GC 2691), 18 hours at 35° C.): 0.5 µg/mL | MIC Enterococcus faecalis (GC 3059) ([1]; Enterococcus faecalis (GC 3059), 18 hours at 35° C.): >0.5 µg/mL | MIC Enterococcus faecalis (GC 4552) [1, 8]: >0.5 µg/mL | MIC Enterococcus faecalis (GC 4553) [1, 9]: >0.5 µg/mL | MIC Enterococcus faecalis (GC 4554) [1, 10]: >0.5 µg/mL | MIC Enterococcus faecalis (GC 6189) ([1]; Enterococcus faecalis (GC 6189)): >0.5 µg/mL | MIC Enterococcus faecium (GC 2243) ([1]; Enterococcus faecium (GC 2243)): >32 µg/mL | MIC Enterococcus faecium (GC 4556) ([1]; Enterococcus faecium (GC 4556)): >32 µg/mL | MIC Enterococcus faecium (GC 4557) ([1]; Enterococcus faecium (GC 4557)): 8 µg/mL | MIC Enterococcus faecalis (ATCC 29212) [1, 11]: >0.5 µg/mL | MIC Enterococcus faecalis (GC 2242) [1, 12]: >0.5 µg/mL | MIC Enterococcus faecium (GC 2243) [1, 13]: >32 µg/mL | MIC Enterococcus faecalis (GC 2691) ([1]; broth dilution, 18 hours at 35° C., strain GC 2691): 0.5 µg/mL | MIC Enterococcus faecalis (GC 3059) ([1]; broth dilution, 18 hours at 35° C., strain GC 3059): >0.5 µg/mL | MIC Enterococcus faecalis (GC 4552) [1, 14]: >0.5 µg/mL | MIC Enterococcus faecalis (GC 4553) [1, 15]: >0.5 µg/mL | MIC Enterococcus faecalis (GC 4554) [1, 16]: >0.5 µg/mL | MIC Enterococcus faecium (GC 4556) [1, 17]: >32 µg/mL | MIC Enterococcus faecium (GC 4557) [1, 18]: 8 µg/mL | MIC Enterococcus avium (GC 4558) [1, 19]: >0.5 µg/mL | MIC Enterococcus faecalis (GC 6189) ([1]; broth dilution, 18 hours at 35° C., strain GC 6189): >0.5 µg/mL | MIC Escherichia coli (GC 4559) [2]: >0.5 µg/mL | MIC Escherichia coli (GC 4560) [2]: 0.5 µg/mL | MIC Coagulase Negative Staphylococcus (GC 4547) [3]: 8 µg/mL | MIC Coagulase Negative Staphylococcus (GC 4548) [3]: 8 µg/mL | MIC Coagulase Negative Staphylococcus (GC 4549) [3]: 8 µg/mL | MIC Coagulase Negative Staphylococcus (GC 4551) [3]: 32 µg/mL | MIC Coagulase Negative Staphylococcus (GC 6257) ([3]; Coagulase Negative Staphylococcus (GC 6257)): 4 µg/mL | MIC Staphylococcus aureus (ATCC 29213) [3, 20]: 0.5 µg/mL | MIC Staphylococcus aureus (GC 1131) [3, 21]: 0.5 µg/mL | MIC Staphylococcus aureus (GC 3051) ([3]; Staphylococcus aureus (GC 3051)): 0.5 µg/mL | MIC Staphylococcus aureus (GC 3053) ([3]; Staphylococcus aureus (GC 3053)): 0.5 µg/mL | MIC Staphylococcus aureus (GC 4541) [3, 22]: 0.5 µg/mL | MIC Staphylococcus aureus (GC 4542) [3, 23]: 0.5 µg/mL | MIC Staphylococcus aureus (GC 4544) [3, 24]: 0.5 µg/mL | MIC Staphylococcus aureus (GC 4545) [3, 25]: 0.5 µg/mL | MIC Staphylococcus aureus-SMITH (GC 4543) [3]: 0.5 µg/mL | MIC Staphylococcus haemolyticus (GC 4546) [3]: 8 µg/mL | MIC Staphylococcus aureus (ATCC 29213) [3, 26]: 0.5 µg/mL | MIC Staphylococcus aureus (GC 1131) ([3]; broth dilution, strain GC 1131): 0.5 µg/mL | MIC Staphylococcus aureus (GC 3051) ([3]; broth dilution, strain GC 3051): 0.5 µg/mL | MIC Staphylococcus aureus (GC 3053) ([3]; broth dilution, strain GC 3053): 0.5 µg/mL | MIC Staphylococcus aureus (GC 4541) ([3]; broth dilution, strain GC 4541): 0.5 µg/mL | MIC Staphylococcus aureus (GC 4542) ([3]; broth dilution, strain GC 4542): 0.5 µg/mL | MIC Staphylococcus aureus (GC 4544) ([3]; broth dilution, strain GC 4544): 0.5 µg/mL | MIC Staphylococcus aureus (GC 4545) ([3]; broth dilution, strain GC 4545): 0.5 µg/mL | MIC Streptococcus agalactiae (GC 4564) [4, 27]: 8 µg/mL | MIC Streptococcus pneumoniae (ATCC 6301) ([4]; Streptococcus pneumoniae (ATCC 6301)): 1 µg/mL | MIC Streptococcus pneumoniae (GC 1894) ([4]; Streptococcus pneumoniae (GC 1894)): 1 µg/mL | MIC Streptococcus pneumoniae (GC 4565) [4, 28]: 4 µg/mL | MIC Streptococcus pyogenes (GC 4563) ([4]; Streptococcus pyogenes (GC 4563)): 0.12 µg/mL | MIC Streptococcus pneumoniae (ATCC 6301) ([4]; broth dilution, strain ATCC 6301): 1 µg/mL | MIC Streptococcus pneumoniae (GC 1894) ([4]; broth dilution, strain GC 1894): 1 µg/mL | MIC Streptococcus pyogenes (GC 4563) ([4]; broth dilution, strain GC 4563): 0.12 µg/mL | MIC Streptococcus agalactiae (GC 4564) ([4]; broth dilution, strain GC 4564): 8 µg/mL | MIC Streptococcus pneumoniae (GC 4565) ([4]; broth dilution, strain GC 4565): 4 µg/mL | MIC Escherichia coli (ATCC 25922) [5]: >0.5 µg/mL

α-O-[(Cyclohexylamino)carbonyl]-cyclo[glycyl-β-methylphenylalanyl-O-(4-O-hexopyranosylhexopyranosyl)tyrosyl-3-(2-iminoimidazolidin-4-yl)seryl-3-(3-hexopyranosyl-2-iminoimidazolidin-4-yl)serylseryl] [Example 256]
MIC Enterococcus avium (GC 4558) ([1]; Enterococcus avium (GC 4558)): >64 µg/mL | MIC Enterococcus faecalis (ATCC 29212) [1, 6]: >64 µg/mL | MIC Enterococcus faecalis (GC 2242) [1, 7]: >64 µg/mL | MIC Enterococcus faecalis (GC 4552) [1, 8]: >64 µg/mL | MIC Enterococcus faecalis (GC 4553) [1, 9]: >64 µg/mL | MIC Enterococcus faecalis (GC 4554) [1, 10]: >64 µg/mL | MIC Enterococcus faecium (GC 2243) ([1]; Enterococcus faecium (GC 2243)): >64 µg/mL | MIC Enterococcus faecium (GC 4556) ([1]; Enterococcus faecium (GC 4556)): >64 µg/mL | MIC Enterococcus faecium (GC 4557) ([1]; Enterococcus faecium (GC 4557)): 64 µg/mL | MIC Enterococcus faecalis (ATCC 29212) [1, 11]: >64 µg/mL | MIC Enterococcus faecalis (GC 2242) [1, 12]: >64 µg/mL | MIC Enterococcus faecium (GC 2243) [1, 13]: >64 µg/mL | MIC Enterococcus faecalis (GC 4552) [1, 14]: >64 µg/mL | MIC Enterococcus faecalis (GC 4553) [1, 15]: >64 µg/mL | MIC Enterococcus faecalis (GC 4554) [1, 16]: >64 µg/mL | MIC Enterococcus faecium (GC 4556) [1, 17]: >64 µg/mL | MIC Enterococcus faecium (GC 4557) [1, 18]: 64 µg/mL | MIC Enterococcus avium (GC 4558) [1, 19]: >64 µg/mL | MIC Escherichia coli (GC 4559) [2]: >64 µg/mL | MIC Escherichia coli (GC 4560) [2]: 32 µg/mL | MIC Coagulase Negative Staphylococcus (GC 4547) [3]: >64 µg/mL | MIC Coagulase Negative Staphylococcus (GC 4548) [3]: >64 µg/mL | MIC Coagulase Negative Staphylococcus (GC 4549) [3]: >64 µg/mL | MIC Coagulase Negative Staphylococcus (GC 4551) [3]: >64 µg/mL | MIC Coagulase Negative Staphylococcus (ID-3941) ([3]; Coagulase Negative Staphylococcus (ID-3941)): >64 µg/mL | MIC Staphylococcus aureus (ATCC 29213) [3, 20]: >64 µg/mL | MIC Staphylococcus aureus (GC 1131) [3, 21]: >64 µg/mL | MIC Staphylococcus aureus (GC 4541) [3, 22]: >64 µg/mL | MIC Staphylococcus aureus (GC 4542) [3, 23]: >64 µg/mL | MIC Staphylococcus aureus (GC 4544) [3, 24]: >64 µg/mL | MIC Staphylococcus aureus (GC 4545) [3, 25]: >64 µg/mL | MIC Staphylococcus aureus-SMITH (GC 4543) [3]: >64 µg/mL | MIC Staphylococcus haemolyticus (GC 4546) [3]: >64 µg/mL | MIC Staphylococcus aureus (ATCC 29213) [3, 26]: >64 µg/mL | MIC Staphylococcus aureus (GC 1131) ([3]; broth dilution, strain GC 1131): >64 µg/mL | MIC Staphylococcus aureus (GC 4541) ([3]; broth dilution, strain GC 4541): >64 µg/mL | MIC Staphylococcus aureus (GC 4542) ([3]; broth dilution, strain GC 4542): >64 µg/mL | MIC Staphylococcus aureus (GC 4544) ([3]; broth dilution, strain GC 4544): >64 µg/mL | MIC Staphylococcus aureus (GC 4545) ([3]; broth dilution, strain GC 4545): >64 µg/mL | MIC Streptococcus agalactiae (GC 4564) [4, 27]: >64 µg/mL | MIC Streptococcus pneumoniae (GC 4565) [4, 28]: >64 µg/mL | MIC Streptococcus pyogenes (ID-3187) ([4]; Streptococcus pyogenes (ID-3187)): 64 µg/mL | MIC Streptococcus agalactiae (GC 4564) ([4]; broth dilution, strain GC 4564): >64 µg/mL | MIC Streptococcus pneumoniae (GC 4565) ([4]; broth dilution, strain GC 4565): >64 µg/mL | MIC Streptococcus pyogenes (ID-3187) ([4]; broth dilution, strain ID-3187): 64 µg/mL | MIC Escherichia coli (ATCC 25922) [5]: >64 µg/mL
